{"source": "patent US7320984B2", "about": "“Remedies or preventives for urinary frequency or urinary incontinence and morphinan derivatives having nitrogen-containing heterocyclic group” (Toray Industries, Inc., priority 2002, dated 2008)", "tested_on": "rhythmic bladder contractions in rats", "assay": "Inhibitory effect against rhythmic bladder contractions in rats", "type": "in vivo", "details": "anesthetized female SD rats, intravenous", "experimental": "Inhibitory Effect Against Rhythmic Bladder Contractions in Rats\nFemale SD rats were anesthetized with an intraperitoneal administration of urethane (1.0 g/kg). A polyethylene tube was inserted from the urethra to the bladder and the tube was fixed by ligation. Then physiological saline was appropriately infused (infusion rate: about 0.2 ml/min., maximum: about 1.5 ml/animal) through the tube to cause rhythmic bladder contractions. The rhythmic bladder contractions were monitored by measuring the intravesical pressure through a polyethylene tube inserted into the bladder. After confirming that stable rhythmic bladder contractions occurred at least 10 times, a vehicle containing a prescribed dose of a test compound was intravenously administration at a dose of 1 ml/kg. In cases where the intravesical pressure, within 10 minutes after the administration of the test compound, decreased to 50% or less of the intravesical pressure immediately […] the administration, the test compound was judged as having inhibitory effect against urinary bladder contractions, and the time period until the intravesical pressure returned to more than 50% was defined as inhibitory time of rhythmic bladder contractions. As the vehicle for administration, physiological saline was used for test compounds 4, 7, 8, 9, 10, 13, 29, 30, 31, 33, 34, 75, 76, 79, 80, 81, 82, 84, 89, 90, 91, 93, 94, 95, 110 and 111, aqueous 10% dimethylsulfoxide (DMSO) solution was used for test compounds 11, 12, 14, 15, 16, 17, 18, 20, 21, 23, 28, 46, 47, 50, 55, 56, 57, 58, 59, 60, 61, 62, 63, 64, 65, 66, 68, 69, 70, 71, 72, 73, 74, 77, 78, 83, 85, 86, 87, 88, 92, 96, 97, 98, 99, 100, […], 103, 104, 105, 106, 107, 108 and […], aqueous 20% dimethylsulfoxide (DMSO) solution was used for test compounds 1, 2, 67 and 101, and aqueous 5% xylitol solution was used for test compounds 5 and 35. The aqueous 10% DMSO solution, aqueous 20% DMSO solution and the aqueous 5% xylitol solution per se, which may influence on the inhibitory time of rhythmic bladder contractions, were also tested at a dose of 1 ml/kg. With any of the compounds, prolongation of the inhibitory time of rhythmic bladder contractions was observed when compared with that obtained in the group to which the vehicle alone was administered."}
{"smiles": "O=C1C2=C(CCCC2)C(=O)N1C1CC[C@@]2(O)[C@H]3Cc4ccc(O)c5c4[C@@]2(CCN3CC2CC2)[C@H]1O5", "note": "(stereo in doubt) [Compound 72, N-(17-cyclopropylmethyl-4,5α-epoxy-3,14-dihydroxymorphinan-6α-yl)-3,4,5,6-tetrahydrophthalimide]", "values": [{"measurement": "Mean Inhibitory Time of Rhythmic Bladder Contractions", "setting": "dose 0.003 mg/kg body weight", "result": 26.7, "unit": "min"}]}
{"smiles": "CN1CC[C@]23c4c5ccc(O)c4O[C@H]2[C@H](N2CCCc4ccccc42)CC[C@H]3[C@H]1C5", "note": "[Compound 1, 4,5α-epoxy-6β-tetrahydroquinolino-17-methyl-morphinan-3-ol]", "values": [{"measurement": "Mean Inhibitory Time of Rhythmic Bladder Contractions", "setting": "dose 0.1 mg/kg body weight", "result": 11.7, "unit": "min"}]}
{"smiles": "CN1CC[C@]23c4c5ccc(O)c4O[C@H]2[C@H](N2CCSc4ccccc42)CC[C@H]3[C@H]1C5", "note": "[Compound 2, 4,5α-epoxy-6β-(3,4-dihydro-2H-benzo[1,4]thiazino)-17-methyl-morphinan-3-ol]", "values": [{"measurement": "Mean Inhibitory Time of Rhythmic Bladder Contractions", "setting": "dose 0.1 mg/kg body weight", "result": 15.5, "unit": "min"}]}
{"smiles": "CN1CC[C@]23c4c5ccc(O)c4O[C@H]2[C@H](N2CCOc4ccccc42)CC[C@H]3[C@H]1C5", "note": "[Compound 4, 4,5α-epoxy-6β-(3,4-dihydro-2H-benzo [1,4]oxazino)-17-methyl-morphinan-3-ol]", "values": [{"measurement": "Mean Inhibitory Time of Rhythmic Bladder Contractions", "setting": "dose 0.1 mg/kg body weight", "result": 15.6, "unit": "min"}]}
{"smiles": "Oc1ccc2c3c1O[C@H]1[C@H](N4CCc5ccccc54)CC[C@@]4(O)[C@@H](C2)N(CCc2ccccc2)CC[C@]314", "note": "[Compound 5, 4,5α-epoxy-6β-indolino-17-phenethyl-morphinan-3,14-diol]", "values": [{"measurement": "Mean Inhibitory Time of Rhythmic Bladder Contractions", "setting": "dose 0.1 mg/kg body weight", "result": 9.9, "unit": "min"}]}
{"smiles": "CN1CC[C@]23c4c5ccc(O)c4O[C@H]2[C@H](N2CC(=O)Nc4ccccc42)CC[C@@]3(O)[C@H]1C5", "note": "[Compound 7, 4-(4,5α-epoxy-3,14-dihydroxy-17-methyl-morphinan-6β-yl)-3,4-dihydro-1H-quinoxalino-2-one]", "values": [{"measurement": "Mean Inhibitory Time of Rhythmic Bladder Contractions", "setting": "dose 1.0 mg/kg body weight", "result": 3.8, "unit": "min"}]}
{"smiles": "CN1C(=O)CN([C@@H]2CC[C@@]3(O)[C@H]4Cc5ccc(O)c6c5[C@@]3(CCN4C)[C@H]2O6)c2ccccc21", "note": "[Compound 8, 4-(4,5α-epoxy-3,14-dihydroxy-17-methyl-morphinan-6β-yl)-1-methyl-3,4-dihydro-1H-quinoxalino-2-one]", "values": [{"measurement": "Mean Inhibitory Time of Rhythmic Bladder Contractions", "setting": "dose 0.3 mg/kg body weight", "result": 6.8, "unit": "min"}]}
{"smiles": "CN1CCN([C@@H]2CC[C@@]3(O)[C@H]4Cc5ccc(O)c6c5[C@@]3(CCN4C)[C@H]2O6)c2ccccc21", "note": "[Compound 9, 4,5α-epoxy-6β-(3,4-dihydro-1-methyl-1H-quinoxalino)-17-methyl-morphinan-3,14-diol]", "values": [{"measurement": "Mean Inhibitory Time of Rhythmic Bladder Contractions", "setting": "dose 0.1 mg/kg body weight", "result": 9.1, "unit": "min"}]}
{"smiles": "CN1CC[C@]23c4c5ccc(O)c4O[C@H]2[C@H](N2CCOCc4ccccc42)CC[C@H]3[C@H]1C5", "note": "[Compound 10, 4,5α-epoxy-6β-(1,2,3,5-tetrahydro-benzo[e][1,4]oxazepino)-17-methyl-morphinan-3-ol]", "values": [{"measurement": "Mean Inhibitory Time of Rhythmic Bladder Contractions", "setting": "dose 0.3 mg/kg body weight", "result": 7.8, "unit": "min"}]}
{"smiles": "O=C1c2ccccc2C(=O)N1[C@@H]1CC[C@@]2(O)[C@H]3Cc4ccc(O)c5c4[C@@]2(CCN3CC2CC2)[C@H]1O5", "note": "[Compound 11, N-(17-cyclopropylmethyl-4,5α-epoxy-3,14-dihydroxy-morphinan-6β-yl)-phthalimide]", "values": [{"measurement": "Mean Inhibitory Time of Rhythmic Bladder Contractions", "setting": "dose 0.005 mg/kg body weight", "result": 15.5, "unit": "min"}]}
{"smiles": "Cc1ccc2c(c1)C(=O)N([C@@H]1CC[C@@]3(O)[C@H]4Cc5ccc(O)c6c5[C@@]3(CCN4CC3CC3)[C@H]1O6)C2=O", "note": "[Compound 12, N-(17-cyclopropylmethyl-4,5α-epoxy-3,14-dihydroxy-morphinan-6β-yl)-4-methylphthalimide]", "values": [{"measurement": "Mean Inhibitory Time of Rhythmic Bladder Contractions", "setting": "dose 0.03 mg/kg body weight", "result": 16.5, "unit": "min"}]}
{"smiles": "C=CCN1CC[C@]23c4c5ccc(O)c4O[C@H]2[C@H](N2C(=O)c4ccccc4C2=O)CC[C@@]3(O)[C@H]1C5", "note": "[Compound 13, N-(17-allyl-4,5α-epoxy-3,14-dihydroxy-morphinan-6β-yl)-phthalimide]", "values": [{"measurement": "Mean Inhibitory Time of Rhythmic Bladder Contractions", "setting": "dose 0.03 mg/kg body weight", "result": 11.7, "unit": "min"}]}
{"smiles": "O=C1c2ccccc2C(=O)N1[C@@H]1CC[C@@]2(O)[C@H]3Cc4ccc(O)c5c4[C@@]2(CCN3)[C@H]1O5", "note": "[Compound 14, N-(4,5α-epoxy-3,14-dihydroxy-morphinan-6β-yl)-phthalimide]", "values": [{"measurement": "Mean Inhibitory Time of Rhythmic Bladder Contractions", "setting": "dose 1.0 mg/kg body weight", "result": 7.9, "unit": "min"}]}
{"smiles": "O=C1c2ccc(Cl)cc2C(=O)N1[C@@H]1CC[C@@]2(O)[C@H]3Cc4ccc(O)c5c4[C@@]2(CCN3CC2CC2)[C@H]1O5", "note": "[Compound 15, N-(17-cyclopropylmethyl-4,5α-epoxy-3,14-dihydroxy-morphinan-6β-yl)-4-chlorophthalimide]", "values": [{"measurement": "Mean Inhibitory Time of Rhythmic Bladder Contractions", "setting": "dose 0.01 mg/kg body weight", "result": 12.2, "unit": "min"}]}
{"smiles": "O=C1c2ccc(F)cc2C(=O)N1[C@@H]1CC[C@@]2(O)[C@H]3Cc4ccc(O)c5c4[C@@]2(CCN3CC2CC2)[C@H]1O5", "note": "[Compound 16, N-(17-cyclopropylmethyl-4,5α-epoxy-3,14-dihydroxy-morphinan-6β-yl)-4-fluorophthalimide]", "values": [{"measurement": "Mean Inhibitory Time of Rhythmic Bladder Contractions", "setting": "dose 0.005 mg/kg body weight", "result": 14.8, "unit": "min"}]}
{"smiles": "O=C1c2cccc(F)c2C(=O)N1[C@@H]1CC[C@@]2(O)[C@H]3Cc4ccc(O)c5c4[C@@]2(CCN3CC2CC2)[C@H]1O5", "note": "[Compound 17, N-(17-cyclopropylmethyl-4,5α-epoxy-3,14-dihydroxy-morphinan-6β-yl)-3-fluorophthalimide]", "values": [{"measurement": "Mean Inhibitory Time of Rhythmic Bladder Contractions", "setting": "dose 0.005 mg/kg body weight", "result": 13.2, "unit": "min"}]}
{"smiles": "Cc1cccc2c1C(=O)N([C@@H]1CC[C@@]3(O)[C@H]4Cc5ccc(O)c6c5[C@@]3(CCN4CC3CC3)[C@H]1O6)C2=O", "note": "[Compound 18, N-(17-cyclopropylmethyl-4,5α-epoxy-3,14-dihydroxy-morphinan-6β-yl)-3-methylphthalimide]", "values": [{"measurement": "Mean Inhibitory Time of Rhythmic Bladder Contractions", "setting": "dose 0.01 mg/kg body weight", "result": 13.7, "unit": "min"}]}
{"smiles": "O=C1CCC(=O)N1[C@@H]1CC[C@@]2(O)[C@H]3Cc4ccc(O)c5c4[C@@]2(CCN3CC2CC2)[C@H]1O5", "note": "[Compound 20, N-(17-cyclopropylmethyl-4,5α-epoxy-3,14-dihydroxy-morphinan-6β-yl)-succinimide]", "values": [{"measurement": "Mean Inhibitory Time of Rhythmic Bladder Contractions", "setting": "dose 1.0 mg/kg body weight", "result": 18.1, "unit": "min"}]}
{"smiles": "O=C1C/C(=C\\c2ccccc2)C(=O)N1[C@@H]1CC[C@@]2(O)[C@H]3Cc4ccc(O)c5c4[C@@]2(CCN3CC2CC2)[C@H]1O5", "note": "[Compound 21, N-(17-cyclopropylmethyl-4,5α-epoxy-3,14-dihydroxy-morphinan-6β-yl)-2-benzylidene-succinimide]", "values": [{"measurement": "Mean Inhibitory Time of Rhythmic Bladder Contractions", "setting": "dose 1.0 mg/kg body weight", "result": 19.0, "unit": "min"}]}
{"smiles": "O=C1C/C(=C\\C2CCCCC2)C(=O)N1[C@@H]1CC[C@@]2(O)[C@H]3Cc4ccc(O)c5c4[C@@]2(CCN3CC2CC2)[C@H]1O5", "note": "[Compound 23, N-(17-cyclopropylmethyl-4,5α-epoxy-3,14-dihydroxy-morphinan-6β-yl)-2-cyclohexylmethylidene-succinimide]", "values": [{"measurement": "Mean Inhibitory Time of Rhythmic Bladder Contractions", "setting": "dose 1.0 mg/kg body weight", "result": 32.0, "unit": "min"}]}
{"smiles": "O=C1c2ccccc2CN1[C@@H]1CC[C@@]2(O)[C@H]3Cc4ccc(O)c5c4[C@@]2(CCN3CC2CC2)[C@H]1O5", "note": "[Compound 28, 2-(17-cyclopropylmethyl-4,5α-epoxy-3,14-dihydroxy-morphinan-6β-yl)-2,3-dihydro-isoisoindol-1-one]", "values": [{"measurement": "Mean Inhibitory Time of Rhythmic Bladder Contractions", "setting": "dose 0.3 mg/kg body weight", "result": 19.6, "unit": "min"}]}
{"smiles": "CCN(CC)C(=O)[C@@H]1CCCN1[C@@H]1CC[C@@]2(O)[C@H]3Cc4ccc(O)c5c4[C@@]2(CCN3C)[C@H]1O5", "note": "[Compound 29, 1-(4,5α-epoxy-3,14-dihydroxy-17-methyl-morphinan-6β-yl)-pyrrolidin-(2S)-carboxyl diethylamide]", "values": [{"measurement": "Mean Inhibitory Time of Rhythmic Bladder Contractions", "setting": "dose 1.0 mg/kg body weight", "result": 0.8, "unit": "min"}]}
{"smiles": "CCN(CC)C(=O)[C@H]1CCCN1[C@@H]1CC[C@@]2(O)[C@H]3Cc4ccc(O)c5c4[C@@]2(CCN3C)[C@H]1O5", "note": "[Compound 30, 1-(4,5α-epoxy-3,14-dihydroxy-17-methyl-morphinan-6β-yl)-pyrrolidin-(2R)-carboxyl diethylamide]", "values": [{"measurement": "Mean Inhibitory Time of Rhythmic Bladder Contractions", "setting": "dose 3.0 mg/kg body weight", "result": 2.3, "unit": "min"}]}
